According to patent publication US10508109B2 (priority 2015, dated 2019):
Where a name gives a salt, the structure may show the parent alone. Read-outs that look alike come from different tables or passages of the source.

How the values were obtained:
[1] = test system: A549; test: Cell-based assay, anti-proliferative activity (Cell Counting Kit-8, 72 hours); conditions: Homo sapiens, read-out: IC50 (μM) A549
In short: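 Growth read-out after inhibitor treatment of plated cells; potency expressed as IC50.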

[2] = test system: CCD-18Co; test: as above; conditions: Homo sapiens, read-out: IC50 (μM) CCD-18Co
In short: (§1)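 Anti-proliferative IC50 obtained from 96-well cultures treated 72 h with inhibitor at 0–100 micro-M, growth assessed by a CCK-8 colorimetric readout.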

[3] = test system: HCT-116; test: as above; conditions: Homo sapiens, read-out: IC50 (μM) HCT-116
In short: as §1

[4] = test system: HFL1; test: as above; conditions: Homo sapiens, read-out: IC50 (μM) HFL1
In short: as §1

[5] = test system: PC14; test: as above; conditions: Homo sapiens, read-out: IC50 (μM) PC14
In short: as §1

[6] = target: SUV39H2 (Homo sapiens (Human), UniProt Q9H5I1); conditions: read-out: IC50 (μM) Suv 39H2 assay
[7] = A549 cells, 72 hours, Cell Counting Kit-8
[8] = CCD-18Co cells, 72 hours, Cell Counting Kit-8
[9] = HCT-116 cells, 72 hours, Cell Counting Kit-8
[10] = HFL1 cells, 72 hours, Cell Counting Kit-8
[11] = PC-14, PC14 cells, 72 hours, Cell Counting Kit-8

SUV39H2, sequence (Q9H5I1 whole entry): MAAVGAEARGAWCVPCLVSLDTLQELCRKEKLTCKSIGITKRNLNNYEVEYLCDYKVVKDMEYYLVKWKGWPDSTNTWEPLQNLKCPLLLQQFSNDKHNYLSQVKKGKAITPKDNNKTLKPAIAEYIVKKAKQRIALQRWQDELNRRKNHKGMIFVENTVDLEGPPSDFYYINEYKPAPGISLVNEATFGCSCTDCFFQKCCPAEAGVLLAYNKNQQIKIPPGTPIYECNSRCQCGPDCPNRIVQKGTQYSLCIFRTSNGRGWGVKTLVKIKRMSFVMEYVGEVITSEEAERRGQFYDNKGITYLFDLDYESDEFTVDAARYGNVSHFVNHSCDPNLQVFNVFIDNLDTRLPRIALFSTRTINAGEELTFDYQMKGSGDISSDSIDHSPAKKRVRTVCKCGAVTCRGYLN

## COc1cc(OCCCN(C)C)c(-c2cn3ccc(N4CCCN(S(C)(=O)=O)CC4)cc3n2)cc1Cl [Example 213, 3-(4-chloro-2-(7-(4-(methylsulfonyl)-1,4-diazepan-1-yl)imidazo-[1,2-a]pyridin-2-yl)-5-methoxyphenoxy)-N,N-dimethylpropan-1-amine]
[1]; [7]
  IC50: 10 µM
[2]; [8]
  IC50: 10 µM
[3]; [9]
  IC50: 5.5 µM
[4]; [10]
  IC50: 7.4 µM
[5]; [11]
  IC50: 9.1 µM
[6]; enzyme assay
  IC50: 0.0145 µM

## CCOP(=O)(CCN1CCCN(c2ccn3cc(-c4cc(Cl)c(OC)cc4OCCCN(C)C)nc3c2)CC1)OCC [Example 214, diethyl (2-(4-(2-(5-chloro-2-(3-(dimethylamino)propoxy)-4-methoxyphenyl)-imidazo[1,2-a]pyridin-7-yl)-1,4-diazepan-1-yl)ethyl)phosphonate]
[1]; [7]
  IC50: 10 µM
[2]; [8]
  IC50: 10 µM
[3]; [9]
  IC50: 10 µM
[4]; [10]
  IC50: 10 µM
[5]; [11]
  IC50: 10 µM
[6]; enzyme assay
  IC50: 0.0106 µM

## CCS(=O)(=O)N1CCCN(c2ccn3cc(-c4cc(Cl)c(OC)cc4OCCCN(C)C)nc3c2)CC1 [Example 215, 3-(4-chloro-2-(7-(4-(ethylsulfonyl)-1,4-diazepan-1-yl)imidazo[1,2-a]pyridin-2-yl)-5-methoxyphenoxy)-N,N-dimethylpropan-1-amine]
[1]; [7]
  IC50: 10 µM
[2]; [8]
  IC50: 7.4 µM
[3]; [9]
  IC50: 10 µM
[4]; [10]
  IC50: 6.4 µM
[5]; [11]
  IC50: 6.5 µM
[6]; enzyme assay
  IC50: 0.0135 µM

## COc1cc(OCCCN(C)C)c(-c2cn3ccc(N4CCCN(S(=O)(=O)N(C)C)CC4)cc3n2)cc1Cl [Example 216, 4-(2-{5-chloro-2-[3-(dimethylamino)propoxy]-4-methoxyphenyl}-imidazo[1,2-a]pyridin-7-yl)-N,N-dimethyl-1,4-diazepane-1-sulfonamide]
[1]; [7]
  IC50: 1.9 µM
[2]; [8]
  IC50: 2.7 µM
[3]; [9]
  IC50: 3.3 µM
[4]; [10]
  IC50: 1.5 µM
[5]; [11]
  IC50: 1.6 µM
[6]; enzyme assay
  IC50: 0.0194 µM

## COc1cc(OC)c(-c2cn3cc(Br)c(N4CCNCC4)cc3n2)cc1Cl [Example 217, 6-bromo-2-(5-chloro-2,4-dimethoxyphenyl)-7-(piperazin-1-yl)-imidazo[1,2-a]pyridine]
[1]; [7]
  IC50: 7.2 µM
[2]; [8]
  IC50: 4.3 µM
[3]; [9]
  IC50: 5.5 µM
[4]; [10]
  IC50: 4.9 µM
[5]; [11]
  IC50: 3.4 µM
[6]; enzyme assay
  IC50: 0.0416 µM

## COc1cc(OC)c(-c2cn3ccc(N4CCN(P(=O)(OC)OC)CC4)nc3n2)cc1Cl [Example 218, dimethyl (4-(2-(5-chloro-2,4-dimethoxyphenyl)imidazo[1,2-a]pyrimidin-7-yl)piperazin-1-yl)phosphonate]
[1]; A549, 72 h
  IC50: 6.5 µM
[2]; CCD-18Co, 72 h
  IC50: 10 µM
[3]; HCT-116, 72 h
  IC50: 5.6 µM
[4]; HFL1, 72 h
  IC50: 10 µM
[5]; PC-14, 72 h
  IC50: 3.4 µM
[6]; enzyme assay
  IC50: 0.0111 µM

## CCOP(=O)(CCN1CCN(c2ccn3cc(-c4cc(Cl)c(OC)cc4OCCCN(C)C)nc3c2)CC1)OCC [Example 219, diethyl (2-(4-(2-(5-chloro-2-(3-(dimethylamino)propoxy)-4-methoxyphenyl)-imidazo[1,2-a]pyridin-7-yl)piperazin-1-yl)ethyl)phosphonate]
[1]; [7]
  IC50: 10 µM
[2]; [8]
  IC50: 10 µM
[3]; [9]
  IC50: 10 µM
[4]; [10]
  IC50: 7.4 µM
[5]; [11]
  IC50: 7.6 µM
[6]; enzyme assay
  IC50: 0.0201 µM

## COc1cc(OC)c(-c2cn3cc(Br)c(N4CCNCC4)nc3n2)cc1Cl [Example 220, 6-bromo-2-(5-chloro-2,4-dimethoxyphenyl)-7-(piperazin-1-yl)imidazo[1,2-a]pyrimidine]
[1]; [7]
  IC50: 2.6 µM
[2]; [8]
  IC50: 3.1 µM
[3]; [9]
  IC50: 2.4 µM
[4]; [10]
  IC50: 3.1 µM
[5]; [11]
  IC50: 2.4 µM
[6]; enzyme assay
  IC50: 0.0262 µM

## COc1cc(OC)c(-c2cn3cc(NCCN)c(N4CCN(C(=O)OC(C)(C)C)CC4)nc3n2)cc1Cl [Example 221, tert-butyl 4-(6-((2-aminoethyl)amino)-2-(5-chloro-2,4-dimethoxyphenyl)imidazo[1,2-a]pyrimidin-7-yl)piperazine-1-carboxylate]
[1]; [7]
  IC50: 10 µM
[2]; [8]
  IC50: 5.6 µM
[3]; [9]
  IC50: 5.4 µM
[4]; [10]
  IC50: 4.9 µM
[5]; [11]
  IC50: 9.5 µM
[6]; enzyme assay
  IC50: 0.0118 µM

## COc1cc(OC)c(-c2cn3cc(NCCN)c(N4CCN(S(=O)(=O)C5CC5)CC4)nc3n2)cc1Cl [Example 222, N^1-(2-(5-chloro-2,4-dimethoxyphenyl)-7-(4-(cyclopropylsulfonyl)-piperazin-1-yl)imidazo[1,2-a]pyrimidin-6-yl)ethane-1,2-diamine]
[1]; [7]
  IC50: 10 µM
[2]; [8]
  IC50: 10 µM
[3]; [9]
  IC50: 10 µM
[4]; [10]
  IC50: 10 µM
[5]; [11]
  IC50: 10 µM
[6]; enzyme assay
  IC50: 0.00597 µM

## COc1cc(OC)c(-c2cn3cc(NCCN)c(N4CCNCC4)nc3n2)cc1Cl [Example 223, N^1-(2-(5-chloro-2,4-dimethoxy-phenyl)-7-(piperazin-1-yl)imidazo[1,2-a]pyrimidin-6-yl)ethane-1,2-diamine]
[1]; [7]
  IC50: 10 µM
[2]; [8]
  IC50: 10 µM
[3]; [9]
  IC50: 10 µM
[4]; [10]
  IC50: 10 µM
[5]; [11]
  IC50: 10 µM
[6]; enzyme assay
  IC50: 0.00866 µM

## COc1cc(OC)c(-c2cn3cc(NCCNC(C)=O)c(N4CCOCC4)cc3n2)cc1Cl [Example 224, N-(2-((2-(5-chloro-2,4-dimethoxyphenyl)-7-morpholinoimidazo[1,2-a]-pyridin-6-yl)amino)ethyl)acetamide]
[1]; A549, 72 h
  IC50: 10 µM
[2]; CCD-18Co, 72 h
  IC50: 10 µM
[3]; HCT-116, 72 h
  IC50: 10 µM
[4]; HFL1, 72 h
  IC50: 10 µM
[5]; PC-14, 72 h
  IC50: 10 µM
[6]; enzyme assay
  IC50: 0.0337 µM

## COc1cc(OC)c(-c2cn3cc(NCCN)c(N4CCN(S(=O)(=O)C5CC5)CC4)cc3n2)cc1Cl [Example 225, N^1-(2-(5-chloro-2,4-dimethoxyphenyl)-7-(4-(cyclopropylsulfonyl)-piperazin-1-yl)imidazo[1,2-a]pyridin-6-yl)ethane-1,2-diamine]
[1]; [7]
  IC50: 10 µM
[2]; [8]
  IC50: 7.3 µM
[3]; [9]
  IC50: 9.6 µM
[4]; [10]
  IC50: 7.3 µM
[5]; [11]
  IC50: 6.9 µM
[6]; enzyme assay
  IC50: 0.0022 µM

## COc1cc(OCCCN(C)C)c(-c2cn3ccc(N4CCN(S(=O)(=O)C(C)C)CC4)nc3n2)cc1Cl [Example 226, 3-(4-chloro-2-(7-(4-(isopropylsulfonyl)piperazin-1-yl)imidazo[1,2-a]-pyrimidin-2-yl)-5-methoxyphenoxy)-N,N-dimethylpropan-1-amine]
[1]; [7]
  IC50: 10 µM
[2]; [8]
  IC50: 10 µM
[3]; [9]
  IC50: 7.8 µM
[4]; [10]
  IC50: 8.9 µM
[5]; [11]
  IC50: 5.5 µM
[6]; enzyme assay
  IC50: 0.0655 µM

## COc1cc(OCCCN(C)C)c(-c2cn3ccc(N4CCN(S(=O)(=O)C5CCCC5)CC4)nc3n2)cc1Cl [Example 227, 3-(4-chloro-2-(7-(4-(cyclopentylsulfonyl)piperazin-1-yl)imidazo[1,2-a]-pyrimidin-2-yl)-5-methoxyphenoxy)-N,N-dimethylpropan-1-amine]
[1]; [7]
  IC50: 7 µM
[2]; [8]
  IC50: 6.2 µM
[3]; [9]
  IC50: 5.2 µM
[4]; [10]
  IC50: 5.7 µM
[5]; [11]
  IC50: 5.4 µM
[6]; enzyme assay
  IC50: 0.0382 µM

## COc1cc(C)c(Cl)cc1-c1cn2ccc(N3CCNCC3)cc2n1 [Example 228, 2-(5-chloro-2-methoxy-4-methylphenyl)-7-(piperazin-1-yl)imidazo[1,2-a]pyridine hydrochloride]
[1]; A549, 72 h
  IC50: 2.8 µM
[2]; CCD-18Co, 72 h
  IC50: 2.6 µM
[3]; HCT-116, 72 h
  IC50: 2 µM
[4]; HFL1, 72 h
  IC50: 1.6 µM
[5]; PC-14, 72 h
  IC50: 2.3 µM
[6]
  IC50: 0.033 µM

## COc1cc(C)c(Cl)cc1-c1cn2ccc(N3CCN(S(=O)(=O)C4CC4)CC3)cc2n1 [Example 229, 2-(5-chloro-2-methoxy-4-methylphenyl)-7-(4-(cyclopropylsulfonyl)-piperazin-1-yl)imidazo[1,2-a]pyridine]
[1]; [7]
  IC50: 1.9 µM
[2]; [8]
  IC50: 3.8 µM
[3]; [9]
  IC50: 2.1 µM
[4]; [10]
  IC50: 2.3 µM
[5]; [11]
  IC50: 0.8 µM
[6]; enzyme assay
  IC50: 0.0775 µM

## COc1cc(C)c(Cl)cc1-c1cn2ccc(N3CCOCC3)cc2n1 [Example 230, 4-(2-(5-chloro-2-methoxy-4-methylphenyl)imidazo[1,2-a]pyridin-7-yl)morpholine]
[1]; [7]
  IC50: 4.4 µM
[2]; [8]
  IC50: 3.5 µM
[3]; [9]
  IC50: 4 µM
[4]; [10]
  IC50: 2.8 µM
[5]; [11]
  IC50: 1.6 µM
[6]; enzyme assay
  IC50: 0.0183 µM

## COc1cc(OC)c(-c2cn3ccc(N4CCC(O)CC4)cc3n2)cc1Cl [Example 231, 1-(2-(5-chloro-2,4-dimethoxyphenyl)imidazo[1,2-a]pyridine-7-yl)piperidin-4-ol]
[1]; [7]
  IC50: 10 µM
[2]; [8]
  IC50: 9.1 µM
[3]; [9]
  IC50: 10 µM
[4]; [10]
  IC50: 6.7 µM
[5]; [11]
  IC50: 3.9 µM
[6]; enzyme assay
  IC50: 0.00488 µM

## COc1cc(OC)c(-c2cn3ccc(N4CCN(C(=O)OC(C)(C)C)CC4)cc3n2)cc1Cl [Example 232, tert-butyl 4-[2-(5-chloro-2,4-dimethoxyphenyl)imidazo[1,2-a]pyridin-7-yl]piperazine-1-carboxylate]
[1]; [7]
  IC50: 1.5 µM
[2]; [8]
  IC50: 1.5 µM
[3]; [9]
  IC50: 1.7 µM
[4]; [10]
  IC50: 1.1 µM
[5]; [11]
  IC50: 0.73 µM
[6]; enzyme assay
  IC50: 0.0291 µM

## COc1cc(Cl)c(Cl)cc1-c1cn2ccc(N3CCCC3)cc2n1 [Example 233, 2-(4,5-dichloro-2-methoxyphenyl)-7-(pyrrolidin-1-yl)imidazo[1,2-a]-pyridine]
[1]; [7]
  IC50: 2.6 µM
[2]; [8]
  IC50: 2.8 µM
[3]; [9]
  IC50: 2.7 µM
[4]; [10]
  IC50: 2.7 µM
[5]; [11]
  IC50: 1.8 µM
[6]; enzyme assay
  IC50: 0.085 µM
